Test results from PubChem BioAssay (NCI).
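Growth conditions: 96-well plates. Treatment: test compound, 48 hours, 5 concentrations. Analysis: linear interpolation between bracketing concentrations; unreached endpoints set to highest concentration. Definition used: TGI = concentration required for complete inhibition of growth.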

Columns and labels:
Assay in all cases: growth of human tumour cells (NCI), 48 h
XF 498 CNS = test system: XF 498 CNS
TK-10 renal = test system: TK-10 renal
UO-31 renal = test system: UO-31 renal
HL-60(TB) leukemia = test system: HL-60(TB) leukemia
U251 CNS = test system: U251 CNS
RPMI-8226 leukemia = test system: RPMI-8226 leukemia
UACC-62 melanoma = test system: UACC-62 melanoma
KM12 colon = test system: KM12 colon
NCI-H522 lung = test system: NCI-H522 lung
DMS 273 small cell lung = test system: DMS 273 small cell lung
HT29 colon = test system: HT29 colon
A498 renal = test system: A498 renal
HOP-18 NSCLC = test system: HOP-18 NSCLC
K-562 leukemia = test system: K-562 leukemia
M19-MEL melanoma = test system: M19-MEL melanoma
MOLT-4 leukemia = test system: MOLT-4 leukemia
KM20L2 colon = test system: KM20L2 colon
MALME-3M melanoma = test system: MALME-3M melanoma
SF-295 CNS = test system: SF-295 CNS
SF-268 CNS = test system: SF-268 CNS
COLO 205 colon = test system: COLO 205 colon
HOP-92 NSCLC = test system: HOP-92 NSCLC
DLD-1 colon = test system: DLD-1 colon
SNB-78 CNS = test system: SNB-78 CNS
HCT-116 colon = test system: HCT-116 colon
SF-539 CNS = test system: SF-539 CNS
SR leukemia = test system: SR leukemia
SK-MEL-5 melanoma = test system: SK-MEL-5 melanoma
HOP-62 NSCLC = test system: HOP-62 NSCLC
SK-OV-3 ovarian = test system: SK-OV-3 ovarian
SK-MEL-28 melanoma = test system: SK-MEL-28 melanoma
SNB-75 CNS = test system: SNB-75 CNS
NCI-H460 lung = test system: NCI-H460 lung
M14 melanoma = test system: M14 melanoma
OVCAR-3 ovarian = test system: OVCAR-3 ovarian
EKVX NSCLC = test system: EKVX NSCLC
NCI-H23 lung = test system: NCI-H23 lung
LOX IMVI melanoma = test system: LOX IMVI melanoma
SW-620 colon = test system: SW-620 colon
LXFL 529 NSCLC = test system: LXFL 529 NSCLC
RXF-631 renal = test system: RXF-631 renal
UACC-257 melanoma = test system: UACC-257 melanoma
NCI-H226 lung = test system: NCI-H226 lung
SN12C renal = test system: SN12C renal
OVCAR-8 ovarian = test system: OVCAR-8 ovarian
CCRF-CEM leukemia = test system: CCRF-CEM leukemia
IGROV1 ovarian = test system: IGROV1 ovarian
DMS 114 small cell lung = test system: DMS 114 small cell lung
ACHN renal = test system: ACHN renal
786-0 renal = test system: 786-0 renal
RXF 393 renal = test system: RXF 393 renal
A549 NSCLC = test system: A549 NSCLC
HCC-2998 colon = test system: HCC-2998 colon
OVCAR-4 ovarian = test system: OVCAR-4 ovarian
SNB-19 CNS = test system: SNB-19 CNS
CAKI-1 renal = test system: CAKI-1 renal

Measured: TGI

Cc1cc(NS(=O)(=O)c2ccc(NC(=O)c3cccn4c(=O)c5ccccc5nc34)cc2)no1
> 100 µM: all assays above
